Data from US20190338284A1, “COMPLEX FOR DRUG DELIVERY AND STABILIZATION AND PREPARATION METHOD THEREOF” (INTEROLIGO CORPORATION, priority 2016, published 2019).
“Also recorded” adds a separate entry of the source.

Key:
Format in all cases: cell-based, human
[1] = tested on: BT-474 and MCF-7 breast cancer cell lines; assay: WST-1 assay of ERBB2 aptamer-siRNA conjugate on breast cancer cell lines
Experimental: In addition, WST-1 assay for the breast cancer cell lines, i.e., BT-474 and MCF-7, was performed. Cell inhibition efficacy validation of ERBB2 aptamer to the breast cancer cell lines was performed in vitro through WST-1 assay. After treating the breast cancer cell lines with a control ERBB2 aptamer without activity, as well as ERBB2 aptamer-siRNA conjugate wherein an effective anticancer agent having excellent anticancer efficacy, that is, siRNA is bound to ERBB2 target aptamer having a cancer cell targeting function, respectively, WST-1 assay was performed.

[2] = tested on: BT-474 and MCF-7 breast cancer cell lines; assay: WST-1 assay of atelocollagen-[ERBB2 aptamer-siRNA conjugate] complex on breast cancer cell lines
Experimental: Cell inhibition efficacy validation of atelcollagen-[ERBB2 aptamer-siRNA conjugate] complex to breast cancer cell lines, i.e., BT-474 and MCF-7, was performed in vitro through WST-1 assay. After treating the breast cancer cell lines with naked ERBB2, atelocollagen-[control aptamer-siRNA conjugate] complex without activity, as well as atelocollagen-[ERBB2 aptamer-siRNA conjugate] complex wherein an effective anticancer agent having excellent anticancer efficacy, that is, siRNA is bound to ERBB2 target aptamer having a cancer cell targeting function, respectively, WST-1 assay was performed.

[3] = tested on: BxPC3, Miapaca-2, Panc-1 and capan-1 pancreatic cancer cell lines; assay: WST-1 assay of aptamer-drug conjugate on pancreatic cancer cell lines; details: WST-1, 0.1 to 100 μM, 72 hours; listed as AS1411 aptamer
Experimental: WST-1 assay for pancreatic cancer cell lines, i.e., BxPC3, Miapaca-2, Panc-1 and capan-1 was performed. Cell inhibition efficacy validation of AS1411-Gem conjugate to the pancreatic cancer cell lines was performed in vitro through WST-1 assay. First, a control aptamer CRO in a naked form without being combined with an anticancer agent, AS1411 having a cancer cell-targeting function, as well as CRO-Gem conjugate and AS1411-Gem conjugate which are combined with an anticancer agent effective to pancreatic cancer, i.e., gemcitabine, respectively, were prepared (Table 2).
Experimental procedure: Each of the pancreatic cancer cell lines, that is, B×PC3, Miapaca-2, Panc-1 and capan-1 (ATCC, RPMI+10% FBS), was seeded on a 96-well plate in a cell number of 1 to 2×10^4 cells/well, which was defined by a cell test method to determine an appropriate cell concentration, followed by growing for 1 day. The aptamer and aptamer-drug conjugate were dissolved in PBS, respectively, and were immediately treated in each well at concentrations from 0.1 μM up to 100 μM. The treated cells were incubated in a 5% CO2 incubator for 72 hours, treated with 10 μl of a reagent solution for WST-1 assay (WST-1, Roche), respectively, followed by measuring the absorbance at 440 nm using an ELISA reader (FIG. 13).

Substance	cell viability and proliferation, comparison of efficacy [1]	cell viability and proliferation, comparison of efficacy [2]	cell viability and proliferation, comparison of efficacy [3]
ERBB2 aptamer-siRNA conjugate (chain 1 AGCUGUCACAGAGGGGCUACUU; chain 2 GUAGCCCCUCUGUGACAGCUU; siRNA conjugated to ERBB2 aptamer, further chemistry not given here)	much better efficacy than the ERBB2 aptamer	much better efficacy than the control group	
TTTGGTGGTGGTGGTTGTGGTGGTGGTGG (SEQ ID NO: 3) [AS1411]			much better efficacy than CRO; also recorded: more excellent efficacy than the case of treatment using the original anticancer agent, that is, gemcitabine alone
